Assay results taken from patent US20250170281A1, “ANTI-CANCER TREATMENT WITH A RADIOACTIVE PARP INHIBITOR” (The Chancellor, Masters and Scholars of the University of …, priority 2022, published 2025).
Entries after “also recorded” stand apart in the source; their conditions may differ.

Tests used:
PSN1 cells [1] = test: Colony formation assay; format: cell-based; conditions: for effect on clonogenic survival: PSN1, cold compounds at amounts equivalent to [123I]CC1
Experimental: (§1) Separate aliquots of cells were irradiated (0-10 Gy, using a ^137Cs irradiator, 0.8 Gy/min). Cells were then washed, a fraction of which was then transferred to 6-well plates containing 2 mL of growth medium, and colony formation was measured two weeks after treatment. Colony numbers were normalized to the number of cells transferred to the plates to obtain plating efficiency, which was in turn normalized to that of untreated cells.
(§2) Following the protocol outlined in part A hereinbefore, colony formation assays were conducted on aliquots of PSN1, U87MG and MDA-MB-231 cells.

PARP6 = PARP6 (Homo sapiens, UniProt Q2NL67); test: PARP family enzymatic activity screening at 10 nM (BPS assay kits); conditions: lesser degree than olaparib, rucaparib and other established PARP inhibitors
PARP6, sequence (Q2NL67 whole entry): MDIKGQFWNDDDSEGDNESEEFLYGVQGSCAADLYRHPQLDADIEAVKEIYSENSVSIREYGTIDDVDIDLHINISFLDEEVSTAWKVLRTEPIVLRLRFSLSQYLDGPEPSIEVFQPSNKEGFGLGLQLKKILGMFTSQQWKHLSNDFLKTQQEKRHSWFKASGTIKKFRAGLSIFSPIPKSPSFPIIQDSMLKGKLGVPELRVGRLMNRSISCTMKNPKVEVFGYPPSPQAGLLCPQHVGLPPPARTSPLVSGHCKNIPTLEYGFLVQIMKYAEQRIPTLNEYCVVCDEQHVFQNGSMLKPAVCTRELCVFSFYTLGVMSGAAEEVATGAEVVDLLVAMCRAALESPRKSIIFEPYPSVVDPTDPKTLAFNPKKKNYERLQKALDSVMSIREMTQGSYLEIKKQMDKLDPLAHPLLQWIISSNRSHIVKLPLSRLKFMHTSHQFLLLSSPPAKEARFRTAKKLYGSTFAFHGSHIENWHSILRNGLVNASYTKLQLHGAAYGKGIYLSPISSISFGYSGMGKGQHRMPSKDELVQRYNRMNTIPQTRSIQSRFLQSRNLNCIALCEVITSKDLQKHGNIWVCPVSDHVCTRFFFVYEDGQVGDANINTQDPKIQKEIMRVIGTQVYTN

U87MG cells [2] = test: Colony formation assay; format: cell-based, Human; conditions: for effect on clonogenic survival: cold compounds at amounts equivalent to [123I]CC1
Experimental: as §1, §2

U87MG cells [3] = test: Flow cytometry of nuclear protein expression post [123I]CC1 treatment; format: cell-based, Human; conditions: 24 h after 1-hour exposure, 50 kBq
Experimental: (§3) AsPC1, PSN1 or U87MG (1×10^6 cells/well in 2 mL growth medium) were seeded in 6-well plates and allowed to adhere for at least 20 h. […] Cells were harvested using trypsin-EDTA solution and washed with FACS buffer (PBS, 2% FBS, 1 mM EDTA, 0.1% NaN3) and centrifuged at 500×g for 5 min. Immunostaining was performed using the Foxp3/transcription factor staining buffer set (eBioscience™, USA). Intracellular staining was conducted in permeabilization buffer for 30 min at 4° C. in the dark using the following antibodies separately: AF488-conjugated anti-PARP-1 (1:100; sc-80070), AF594-conjugated anti-PARP-2 (1:100; sc-393310) and AF488-conjugated anti-PARP-3 (1:100; sc-390771) from Santa Cruz Biotechnology Inc. (USA), AF488-conjugated anti-IMPDH2 (1:500; ab-200770) from Abcam plc. (UK), yH2AX (1:1000; JBW301 Merck-Millipore). Fixable viability dye ef780 (1:4000; eBioscience™; 65-0865-14) was used for live/dead discrimination. Fixation of immunostained cells was performed for 15 min at RT. Flow cytometry was conducted using a CytoFLEX flow cytometer (Beckman Coulter, USA), with appropriate laser and filters, positive and negative controls. Data were analyzed using FlowJo™ (Tree Star Inc., BD Biosciences, USA).
(§4) Quantification of AsPC1, PSN1 or U87MG cells was conducted following the protocol outlined in part A hereinbefore. Relative expression of PARP1 and 2 was measured using flow cytometry. γH2AX expression, as a measure for DNA double strand break damage, was assessed in a similar manner.

PSN1 cells [4] = test: In vitro uptake and specificity of [123I]CC1; format: cell-based; conditions: for uptake of [123I]CC1 on addition of cold blocker: PSN1, blocker 100 μM, 45 min before tracer
Experimental: (§5) AsPC1 (1×10^5 cells/well), PSN1 cells (7.5×10^4 cells/well) or U87MG (1×10^5 cells/well) were seeded separately in 24-well plates containing growth medium and allowed to adhere for at least 20 h. Cells were washed and exposed to cold, unlabelled PARP inhibitors (100 μM, in a total of 270 μL growth medium) for 45 min at 37° C. […] Cell culture medium was removed, and cells washed with PBS. Cells were lysed using RIPA buffer ([…] Tris pH 8.0, 1% NP40, 0.5% sodium deoxycholate, 0.1% sodium dodecyl sulphate, and 150 mM sodium chloride) for 15 min at room temperature, and the amount of ^123I in cell lysates was measured using an automated gamma counter (PerkinElmer). […] The amount of ^123I in cell lysates was measured as above.
(§6) AsPC1 (1×10^5 cells/well), PSN1 (7.5×10^4 cells/well) or U87MG (1×10^5 cells/well) were seeded as described in part A hereinbefore. CAPAN-1 cells (7.5×10^4 cells/well) were seeded following the same protocol described in part A hereinbefore.

AsPC1 cells [5] = test: In vitro uptake and specificity of [123I]CC1; format: cell-based; conditions: for uptake of [123I]CC1 on addition of cold blocker: AsPC1, blocker 100 μM, 45 min before tracer
Experimental: as §5, §6

U87MG cells [6] = test: In vitro uptake and specificity of [123I]CC1; format: cell-based, Human; conditions: for uptake of [123I]CC1 on addition of cold blocker: blocker 100 μM, 45 min before tracer
Experimental: as §5, §6

PSN1 xenografts [7] = test: In vivo therapy study; conditions: single i.v. 3 MBq
Experimental: […]. Mice and tumour sizes were monitored daily. Study endpoint was determined based humane endpoints, including a tumour size >1200 mm^3, or weight loss >15%.
[…]. Mice were monitored daily. Tumour sizes were determined by calliper. Study endpoints were based on humane endpoints, including a tumour size >1000 mm^3, or weight loss >15%.

[8] = Blood clearance by VOI analysis of dynamic imaging; format: in vivo; conditions: PSN1 xenograft-bearing mice, i.v. 3 MBq; CI95 1.64-2.09 min
Experimental: Images were analysed using VOI-based analysis, using PMOD.
In a selected number of animals (n=3), animals were anaesthetised using 2% isoflurane, and dynamic SPECT/CT imaging was performed over 1 h, using a MILabs VECTor4 camera, equipped with an ultra-high-resolution rat/mouse collimator (1.8 mm), followed by a cone-beam CT scan (55 kV, 0.19 mA) for anatomical reference and attenuation correction. Anesthesia was maintained using 2.5% isoflurane throughout the duration of image acquisition. SPECT images were reconstructed using U-SPECT-Rec3.22 software (MILabs, Utrecht, The Netherlands), applying a pixel-based algorithm, ordered subset expectation maximisation (OSEM) with 4 subsets, 4 iterations and 0.6 mm voxel size for lodine-123 (energy window settings 141.3-172.7 keV). Reconstructed SPECT and CT images were viewed and analyzed using PMOD v.3.37 (PMOD Technologies, Zurich, Switzerland).

[9] = Toxicology: H&E staining of normal tissues; format: in vivo, C57/Bl6 mice; conditions: 3 MBq i.v.
Text: Liver, spleen, kidneys and intestines were investigated by an experienced veterinary pathologist and compared to age-matched non-treated control animals.
Tissues were further stained for γH2AX to investigate DNA double strand break damage, and livers were additionally stained for PAS, as a marker for glycogen storage.

PSN1 xenografts [10] = test: Biodistribution of [123I]CC1 in xenograft-bearing mice; format: in vivo; conditions: for tumour uptake: 1 h after i.v. 3 MBq
Experimental: PSN1 cells were harvested using trypsin, washed twice with PBS, and reconstituted in PBS: Matrigel® Matrix High Concentration (1:1). Cell suspensions (PSN1: 2×10^6 […]) were injected subcutaneously in the front right flank of the mice, and allowed to grow to a size of approximately 200 mm^3.
To evaluate the specificity of tumour uptake, an excess of unlabelled rucaparib (0.5 mg) was co-administered as blocking agent. Either after 60 or 120 min after radiolabelled compound injection, animals were euthanised. Selected organs, tissues and blood were removed, and the percentage of the injected dose per gram of tissue (% ID/g) was determined, using a HIDEX automated gammacounter.
(§7) Following the protocol described in part A hereinbefore, PSN1, U87MG, or MDA-MB-231 cells were harvested using trypsin, washed twice with PBS, and reconstituted in PBS: Matrigel® Matrix High Concentration (1:1). Cell suspensions were injected subcutaneously in the hind right flank and allowed to form tumours. […] To evaluate the specificity of tumour uptake, an excess of unlabelled rucaparib (0.5 mg) was co-administered as a blocking agent in some animals. Either 60 or 120 min after radiolabelled compound injection, animals were euthanised (n=3 per group). Selected organs, tissues and blood were removed, and the percentage of the injected activity per gram of tissue (% IA/g) was determined, using a HIDEX automated gammacounter.

MDA-MB-231 xenografts [11] = test: as above; format: in vivo; conditions: 2 h after i.v. 3 MBq
Experimental: as §7

U87MG xenografts [12] = test: as above; format: in vivo; conditions: 2 h after i.v. 3 MBq
Experimental: as §7

PSN1 cells [13] = test: Flow cytometry of nuclear protein expression post [123I]CC1 treatment; format: cell-based; conditions: PSN1, 24 h after 1-hour exposure, 50 kBq
Experimental: as §3, §4

AsPC1 cells [14] = test: as above; format: cell-based; conditions: 50 kBq
Experimental: as §3, §4

MDA-MB-231 xenografts [15] = test: In vivo therapy study; parameters: species or system mice; conditions: single i.v. 3 MBq
Experimental: (§8) Mice were monitored daily. Tumour sizes were determined by calliper. Study endpoints were based on humane endpoints, including a tumour size >1000 mm^3, or weight loss >15%.

U87MG xenografts [16] = test: In vivo therapy study; parameters: species or system mice; conditions: single i.v. 3 MBq
Experimental: as §8

[17] = AsPC1, 24 h after 1-hour exposure

O=C(c1cc(Cc2n[nH]c(=O)c3ccccc23)ccc1[123I])N1CCN(C(=O)C2CC2)CC1 [CC1]
effect on clonogenic survival (PSN1 cells [1]): no effect
inhibition of PARP6 catalytic activity by a single dose (PARP6): able to inhibit
effect on clonogenic survival (U87MG cells [2]): no effect

O=C(c1cc(Cc2n[nH]c(=O)c3ccccc23)ccc1[123I])N1CCN(C(=O)C2CC2)CC1 [[^123I]CC1]
PARP1 expression (U87MG cells [3]): increased expression
PARP2 expression (U87MG cells [3]): increased expression
γH2AX expression (DNA double strand breaks) (U87MG cells [3]): increased significantly; also recorded: increased markedly
time at which cell uptake plateaus (PSN1 cells [4]; PSN1, 37° C.): 1 h
cell uptake (PSN1 cells [4]; PSN1, Part B): around 0.3 fmol/cell
time at which cell uptake plateaus (AsPC1 cells [5]; AsPC1, 37° C.): 1 h
cell uptake (AsPC1 cells [5]; AsPC1, Part B): around 0.3 fmol/cell
time at which cell uptake plateaus (U87MG cells [6]; 37° C.): 1 h
cell uptake (U87MG cells [6]; Part B): around 0.3 fmol/cell
clonogenic survival IC50 (PSN1 cells [1]; PSN1, 60 min exposure): 1 kBq/mL
effect on clonogenic survival (PSN1 cells [1]): far less pronounced
tumour growth (PSN1 xenografts [7]; PSN1 xenografts, vs cold unlabelled CC1, p=0.04): significant inhibition of tumour growth
gross toxicity (weight loss of the mice) (PSN1 xenografts [7]): without signs of gross toxicity
blood clearance, weighed half-life [8]: 1.86 min
amount from which clonogenic survival is significantly reduced (U87MG cells [2]; 1 h exposure): ≥ 10 Bq
clonogenic survival IC50 (U87MG cells [2]; in 200 μl, 60 min exposure): 631±35 Bq
shrunken (pyknotic) hepatocytes in liver [9]: 0.1-0.2 per field
histopathology, intestines ([9]; 24 h and 28 days): minimal proprial infiltration by lymphocytes and plasma cells
histopathology, kidneys ([9]; 24 h and 28 days): no observable changes
histopathology, liver: the one marked effect ([9]; 24 h and 28 days): diffuse cytoplasmic pallor/rarefaction
histopathology, spleen ([9]; 24 h and 28 days): mild to moderate numbers of hemosiderophages
clearance pattern (high uptake in liver and intestines) (PSN1 xenografts [10]; PSN1 xenograft-bearing mice, 3 MBq, 20 GBq/μmol): hepatobiliary clearance pattern
tumour uptake (PSN1 xenografts [10]; PSN-1 xenografts, Part A): 0.9±0.06 % ID/g
tumour uptake (PSN1 xenografts [10]; PSN-1 xenografts, Part B): 0.9±0.06 % IA/g
amount remaining in tumour (PSN1 xenografts [10]; PSN-1 xenografts, 24 h after injection): 0.033±0.017 % IA/g
tumour uptake (MDA-MB-231 xenografts [11]): 0.19±0.01 % IA/g
tumour uptake (U87MG xenografts [12]): 0.46±0.01 % IA/g
PARP1 expression (PSN1 cells [13]): increased expression
PARP2 expression (PSN1 cells [13]): increased expression
γH2AX expression (DNA double strand breaks) (PSN1 cells [13]): increased significantly; also recorded: increased markedly
PARP1 expression (AsPC1 cells [14]; [17]): increased expression
PARP2 expression (AsPC1 cells [14]; [17]): increased expression
γH2AX expression (DNA double strand breaks) (AsPC1 cells [14]; AsPC1, 24 h after exposure): increased significantly
tumour growth response (MDA-MB-231 xenografts [15]): not affected in their growth
tumour growth response (U87MG xenografts [16]): responded less than PSN-1 xenografts

O=c1c(-c2ccc(O)cc2)coc2cc(O[C@@H]3O[C@H](CO)[C@@H](O)[C@H](O)[C@H]3O)ccc12 [daidzin, reference compound]
uptake of [123I]CC1 on addition of cold blocker (PSN1 cells [4]): reduced
uptake of [123I]CC1 on addition of cold blocker (AsPC1 cells [5]): reduced
uptake of [123I]CC1 on addition of cold blocker (U87MG cells [6]): reduced

COc1c(C)c2c(c(O)c1C/C=C(\C)CCC(=O)OCCN1CCOCC1)C(=O)OC2 [m.mofetil, Mycophenolate mofetil, reference compound]
uptake of [123I]CC1 on addition of cold blocker (PSN1 cells [4]): reduced
uptake of [123I]CC1 on addition of cold blocker (AsPC1 cells [5]): reduced
uptake of [123I]CC1 on addition of cold blocker (U87MG cells [6]): reduced

O=C(c1cc(Cc2n[nH]c(=O)c3ccccc23)ccc1F)N1CCN(C(=O)C2CC2)CC1 [olaparib, reference compound]
effect on clonogenic survival (PSN1 cells [1]): no effect
effect on clonogenic survival (U87MG cells [2]): no effect

CNCc1ccc(-c2[nH]c3cc(F)cc4c3c2CCNC4=O)cc1 [rucaparib, reference compound]
tumour uptake of [123I]CC1 on co-administration of excess blocker (PSN1 xenografts [10]; PSN1 xenografts, 0.5 mg blocker, 2 h, P<0.05): significantly reduced tumour uptake
